The text below walks through data of patent EP0338372A2, “Solubilized pro-drugs” (AMERICAN CYANAMID COMPANY, priority 1988, dated 1989).

One experiment has as its system melanotic melanoma B16. In words: Melanotic Melanoma B16 test. Type of experiment: in vivo, BDF1 mice.
The test system of experiment [1] is lymphocytic leukemia P388. Briefly: Lymphocytic leukemia P388 test. Type of experiment: in vivo, BDF1 mice.
Setting [2] is: Dose 12.5 mg/kg intraperitoneally on days 1, 5 and 9.
[3] abbreviates: Dose 25 mg/kg intraperitoneally on days 1, 5 and 9.
The mark [4] stands for this setting: Dose 50 mg/kg intraperitoneally on days 1, 5 and 9.
Where [5] appears, read: Dose 100 mg/kg intraperitoneally on days 1, 5 and 9.
Setting [6] is: Dose 200 mg/kg intraperitoneally on days 1, 5 and 9.
Where [7] appears, read: Dose 0.78 mg/kg intraperitoneally on days 1, 5 and 9.
The mark [8] stands for this setting: Dose 1.56 mg/kg intraperitoneally on days 1, 5 and 9.
Setting [9] is: Dose 3.12 mg/kg intraperitoneally on days 1, 5 and 9.
Setting [10] is: Dose 6.25 mg/kg intraperitoneally on days 1, 5 and 9.

Regarding `O=C(c1ccccc1)N1CCN=C1N(N=Cc1c2ccccc2c(C=NN(C(=O)c2ccccc2)C2=NCCN2C(=O)c2ccccc2)c2ccccc12)C(=O)c1ccccc1` [2,2-(9,14-Anthracenediyldimethylidyne)bis[1-(1-benzoyl-4,5-dihydro-1H-imidazol-2-yl)hydrazide] of Benzoic Acid], the “Median Survival” value came to 29.5 days with melanotic melanoma B16 (setting [2]); 32 days with melanotic melanoma B16 (setting [3]); 40 days in the experiment with melanotic melanoma B16 (setting [4]); 57.5 days in the experiment with melanotic melanoma B16 (setting [5]); 50 days with melanotic melanoma B16 (setting [6]); 15.5 days in experiment [1] (setting [7]). In addition, the “Median Survival” value was 17.5 days in experiment [1] (setting [8]); 17 days in experiment [1] (setting [9]); 18 days in experiment [1] (setting [10]); 19 days in experiment [1] (setting [2]); 19.5 days in experiment [1] (setting [3]); 20 days in experiment [1] (setting [4]). Besides, the “Median Survival” value was 23 days in experiment [1] (setting [5]) and 32 days in experiment [1] (setting [6]). Besides, the “T/C x 100 %” value in the experiment on melanotic melanoma B16 (setting [2]) came out at 134%; in the experiment on melanotic melanoma B16 (setting [3]), 145%; in the experiment with melanotic melanoma B16 (setting [4]) it was 182%; in the experiment with melanotic melanoma B16 (setting [5]), 261%; with melanotic melanoma B16 (setting [6]), 227%; in experiment [1] (setting [7]) it was 155%. Besides, the “T/C x 100 %” value in experiment [1] (setting [8]) came to 175%; in experiment [1] (setting [9]) it was 170%; in experiment [1] (setting [10]) it was 180%; in experiment [1] (setting [2]), 190%; in experiment [1] (setting [3]), 195%; in experiment [1] (setting [4]), 200%. In addition, the “T/C x 100 %” value in experiment [1] (setting [5]) and in experiment [1] (setting [6]) was 320% each time.

`CC(=O)N1CCN=C1N(N=Cc1c2ccccc2c(C=NN(C(C)=O)C2=NCCN2C(C)=O)c2ccccc12)C(C)=O` [2,2'-(9,10-Anthracenediyldimethylidyne)bis[1-(1-acetyl-4,5-dihydro-1H-imidazol-2-yl)hydrazide] of acetic acid]: the “Median Survival” value worked out at 10.5 days in experiment [1] (setting [2]), 10.5 days in experiment [1] (setting [4]) and 11 days in experiment [1] (setting [5]). Also, the “T/C x 100 %” value in experiment [1] (setting [2]) turned out to be 105%; in experiment [1] (setting [4]), 105%; in experiment [1] (setting [5]), 110%.

Turning to `CC(C)(C)CC(=O)N1CCN=C1N(N=Cc1c2ccccc2c(C=NN(C(=O)CC(C)(C)C)C2=NCCN2C(=O)CC(C)(C)C)c2ccccc12)C(=O)CC(C)(C)C` [2,2'-(9,10-Anthracenediyldimethylidyne)bis[1-[1-(3,3-dimethyl-1-oxobutyl)-4,5-dihydro-1H-imidazol-2-yl]-hydrazide] of 3,3-dimethylbutanoic acid], in experiment [1] (setting [5]), the “Median Survival” value stood at 12 days and the “T/C x 100 %” value worked out at 109%. For the same molecule, in experiment [1] (setting [6]), the “Median Survival” value was 13 days and the “T/C x 100 %” value is 118%.

`CCCC(=O)N1CCN=C1NN=Cc1c2ccccc2c(C=NNC2=NCCN2C(=O)CCC)c2ccccc12` [2,2-(9,10-Anthracenediylbis(methylidyne-1-hydrazinyl-2-ylidene)]bis4,5-dihydro-1-(1-oxobutyl)-1H-imidazole]]: the “Median Survival” value in the experiment on melanotic melanoma B16 (setting [3]) worked out at 26 days; with melanotic melanoma B16 (setting [4]), 24.5 days; in the experiment with melanotic melanoma B16 (setting [5]) it was 28.5 days; in the experiment with melanotic melanoma B16 (setting [6]), 27.5 days; in experiment [1] (setting [2]), 12.5 days; in experiment [1] (setting [3]), 12.5 days. The “Median Survival” value in experiment [1] (setting [4]) was determined as 14 days; in experiment [1] (setting [5]), 14.5 days; in experiment [1] (setting [6]) it was 15.5 days. Besides, the “T/C x 100 %” value with melanotic melanoma B16 (setting [3]) came out at 118%; in the experiment on melanotic melanoma B16 (setting [4]) it was 111%; with melanotic melanoma B16 (setting [5]), 130%; in the experiment on melanotic melanoma B16 (setting [6]) it was 125%; in experiment [1] (setting [2]), 125%; in experiment [1] (setting [3]), 125%. Moreover, the entries for the “T/C x 100 %” value in experiment [1] (setting [4]), in experiment [1] (setting [5]) and in experiment [1] (setting [6]) were 140%, 145% and 155%, respectively.

For the molecule `O=C(c1ccccc1F)N1CCN=C1N(N=Cc1c2ccccc2c(C=NN(C(=O)c2ccccc2F)C2=NCCN2C(=O)c2ccccc2F)c2ccccc12)C(=O)c1ccccc1F` [2,2'-(9,10-Anthracenediyldimethylidyne)bis[1-[1-(2-fluorobenzoyl)-4,5-dihydro-1H-imidazol-2-yl] hydrazide] of 2-fluorobenzoic acid], the “Median Survival” value in experiment [1] (setting [3]) was 12 days; in experiment [1] (setting [4]), 13 days; in experiment [1] (setting [5]) it was 13 days; in experiment [1] (setting [6]), 12 days. Further, the “T/C x 100 %” value in experiment [1] (setting [3]) is on record as 109%; in experiment [1] (setting [4]) it was 118%; in experiment [1] (setting [5]) it was 118%; in experiment [1] (setting [6]) it was 109%.

For `COCC(=O)N1CCN=C1N(N=Cc1c2ccccc2c(C=NN(C(=O)COC)C2=NCCN2C(=O)COC)c2ccccc12)C(=O)COC` [2,2-(9,10-Anthracenediyldimethylidyne)bis[1-[4,5-dihydro-1-(methoxyacetyl)-1H-imidazo)-2-yl]hydrazide] of Methoxyacetic Acid], the “Median Survival” value in experiment [1] (setting [9]) was 14.5 days; in experiment [1] (setting [2]) it was 16.5 days; in experiment [1] (setting [4]) it was 16.5 days; in experiment [1] (setting [6]) it was 16.5 days. The “T/C x 100 %” value in experiment [1] (setting [9]) is 132%; in experiment [1] (setting [2]) it was 150%; in experiment [1] (setting [4]), 150%; in experiment [1] (setting [6]), 150%.

For “[2-[[[10-[((4,5-Dihydro-1H-imidazol-2-yl)ethylhydrazono]methyl]-9-anthracenyl]methylene] hydrazino]-4,5-dihydro-1H-imidazol-1-yl]phosphonic Acid, Hydroiodide”, the “Median Survival” value in experiment [1] (mouse, in vivo, ip, 0.4 mg/kg) came out at 18 days; in experiment [1] (mouse, in vivo, ip, 0.8 mg/kg) it was 21.5 days; in experiment [1] (mouse, in vivo, ip, 1.6 mg/kg), 18 days; in experiment [1] (mouse, in vivo, ip, 3.2 mg/kg) it was 22.5 days; in experiment [1] (mouse, in vivo, ip, 6.3 mg/kg), 24 days; in experiment [1] (mouse, in vivo, ip, 12.5 mg/kg), 25 days. For the same molecule, the “Median Survival” value in experiment [1] (mouse, in vivo, ip, 25 mg/kg) was 25 days; in experiment [1] (mouse, in vivo, ip, 50 mg/kg) it was 25.5 days. Also, the “T/C x 100 %” value in experiment [1] (mouse, in vivo, ip, 0.4 mg/kg) was determined as 164%; in experiment [1] (mouse, in vivo, ip, 0.8 mg/kg), 195%; in experiment [1] (mouse, in vivo, ip, 1.6 mg/kg), 164%; in experiment [1] (mouse, in vivo, ip, 3.2 mg/kg) it was 205%; in experiment [1] (mouse, in vivo, ip, 6.3 mg/kg) it was 218%; in experiment [1] (mouse, in vivo, ip, 12.5 mg/kg), 227%. For the same molecule, the “T/C x 100 %” value in experiment [1] (mouse, in vivo, ip, 25 mg/kg) is 227%; in experiment [1] (mouse, in vivo, ip, 50 mg/kg), 232%.
